Laboratory results: US20130071415A1, “Heterocyclic Compounds as Janus Kinase Inhibitors” (BioCryst Pharmaceuticals, Inc., priority 2010, published 2013)
Structures can show the parent of a compound that is named as a salt.

## c1cc2c(-c3cn[nH]c3)ncnn2c1 (as salt: HCl) [Compound 13c, 4-(1H-Pyrazol-4-yl)pyrrolo[1,2-f][1,2,4]triazine]
  melting point: 245.8 °C
